pKi: −log10 of the molar value.
Target: Leukotriene B4 receptor 1 (Cavia porcellus)
Assay: Binding affinity against LTB4 receptor in guinea pig membrane

| SMILES | pKi |
| --- | --- |
| CCCc1c(OCCCOc2cc(O)c(C(C)=O)cc2CC)cccc1OCC(=O)O [{3-[3-(4-Acetyl-2-ethyl-5-hydroxy-phenoxy)-propoxy]-2-propyl-phenoxy}-acetic acid] | 8.30 |
| CCCc1c(OCCCOc2cc(O)c(C(C)=O)cc2CC)cccc1OC(C)C(=O)O (configuration not stated) [2-{3-[3-(4-Acetyl-2-ethyl-5-hydroxy-phenoxy)-propoxy]-2-propyl-phenoxy}-propionic acid] | 7.72 |

From BindingDB's records for doi:10.1016/S0960-894X(00)80304-2 (1993)
